For one assay, the target named is T1, human NOX1 (Homo sapiens, UniProt Q9Y5S8).
T1 construct: expressed in transfected cells; host or cells: CHO
T1 sequence (Q9Y5S8 1-564): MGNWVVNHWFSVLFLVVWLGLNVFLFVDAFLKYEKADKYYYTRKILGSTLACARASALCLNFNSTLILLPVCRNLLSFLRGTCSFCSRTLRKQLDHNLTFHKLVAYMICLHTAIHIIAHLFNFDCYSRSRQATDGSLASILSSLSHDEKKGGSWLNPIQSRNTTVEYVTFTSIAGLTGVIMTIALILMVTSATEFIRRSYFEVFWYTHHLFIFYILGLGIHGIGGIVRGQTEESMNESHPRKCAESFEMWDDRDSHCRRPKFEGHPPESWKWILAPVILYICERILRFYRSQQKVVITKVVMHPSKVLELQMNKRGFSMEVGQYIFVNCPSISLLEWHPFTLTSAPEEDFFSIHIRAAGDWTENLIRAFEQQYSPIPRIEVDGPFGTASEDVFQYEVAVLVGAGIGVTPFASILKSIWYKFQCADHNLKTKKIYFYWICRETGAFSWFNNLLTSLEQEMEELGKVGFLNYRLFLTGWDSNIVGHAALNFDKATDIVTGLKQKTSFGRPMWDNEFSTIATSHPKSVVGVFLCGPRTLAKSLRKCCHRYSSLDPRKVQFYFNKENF
T1 sequence (P13498 1-195 partner): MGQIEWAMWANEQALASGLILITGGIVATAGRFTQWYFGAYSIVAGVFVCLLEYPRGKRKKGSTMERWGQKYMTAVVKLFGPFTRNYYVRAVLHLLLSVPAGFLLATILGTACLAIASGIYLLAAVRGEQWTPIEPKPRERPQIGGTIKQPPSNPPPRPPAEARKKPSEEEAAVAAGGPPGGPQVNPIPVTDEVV
The assay is described as follows: WST-1 O2•- detection in NOX1-expressing CHO cells. The assay is classed as cell-based. Particulars: NOX1 expressing cells, concentration-response. (Tetrazolium assays rely on reduction of a dye to a coloured formazan, in cell work by metabolically active cells.)

Assay [1] is described as follows: Cell-free Amplex Red/HRP assay with 10 μM H2O2 (H2O2 scavenging / HRP inhibition). To be noted: H2O2 alone.
Method: This assay allows to detect H2O2 scavengers as well as HRP inhibitors. (iii) Another assay for determining antioxidant activity analyzes serial dilutions of compounds in the presence of free radical DPPH in methanol in transparent 96-well plates (200 μl/well). Absorbance was measured at 540 nm after 15 min incubation in the dark. All scavenging assays were performed with FlexStation 3 Multi-Mode Microplate Reader (Molecular Devices).
A further assay has as its target NOX5. Set-up: method as in PMID 27273790. Particulars: documented values, measured using Amplex Red/HRP assay; cited from earlier work.
Another assay deals with NOX1. Set-up: method as in PMID 27273790. To be noted: documented values, measured using Amplex Red/HRP assay; cited from earlier work.
The next assay deals with T2, human NOX4 (Homo sapiens, UniProt Q9NPH5).
T2 sequence (Q9NPH5 1-578): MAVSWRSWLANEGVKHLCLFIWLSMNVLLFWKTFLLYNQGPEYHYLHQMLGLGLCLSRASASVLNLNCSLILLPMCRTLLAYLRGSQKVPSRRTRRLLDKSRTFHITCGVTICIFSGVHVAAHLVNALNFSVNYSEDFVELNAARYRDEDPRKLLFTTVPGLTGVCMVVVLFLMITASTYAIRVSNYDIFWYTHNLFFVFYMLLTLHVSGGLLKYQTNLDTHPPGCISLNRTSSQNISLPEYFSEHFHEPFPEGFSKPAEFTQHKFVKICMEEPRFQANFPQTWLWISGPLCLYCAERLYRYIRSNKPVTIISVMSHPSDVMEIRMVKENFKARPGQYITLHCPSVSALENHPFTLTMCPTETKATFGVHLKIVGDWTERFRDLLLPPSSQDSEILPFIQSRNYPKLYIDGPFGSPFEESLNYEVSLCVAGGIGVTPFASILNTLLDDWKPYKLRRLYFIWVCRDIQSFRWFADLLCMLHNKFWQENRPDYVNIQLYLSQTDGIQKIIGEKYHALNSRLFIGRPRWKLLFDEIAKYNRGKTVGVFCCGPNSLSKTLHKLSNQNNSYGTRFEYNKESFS
T2 sequence (P13498 1-195 partner): T1 sequence (P13498 1-195 partner)
Put plainly: WST-1 O2•- detection in tetracycline-induced NOX4 HEK293 T-REx cells. The assay is classed as cell-based. Particulars: NOX4 expressing cells, concentration-response.

The text below walks through data of publication PMC6658998, “Pharmacological characterization of the seven human NOX isoforms and their inhibitors” (Redox Biology, 2019).

`CN(C)c1cccc(-c2c3c(=O)n(-c4ccccc4Cl)[nH]c3cc(=O)n2C)c1` [GKT137831]: the “Activity on NOX1 in the WST-1 assay” value on human NOX1 is “inactive”. Moreover, in assay [1], the “Effect on Amplex red/HRP signal in the presence of H2O2 alone” value is listed as “inhibits the Amplex red/HRP signal”. Besides, the “Ki NOX5” value on NOX5 is on record as “nanomolar range”. Besides, the “Ki NOX1” value at NOX1 is on record as “nanomolar range”. Also, the “Activity on NOX4 in the WST-1 assay” value at human NOX4 is “inactive”.
